Paper PMC6426897, “Inhibition of NLRP3 inflammasome activation by cell-permeable stapled peptides” (Scientific Reports, 2019)
Where a SMILES comes first, the peptide text is derived from it. Bridges are numbered along the chain shown (N, C = ends). [ ]: non-standard residue; d: D form. R8 = C=CCCCCCC[C@@](C)(N)C(=O)O; S5 = C=CCCC[C@](C)(N)C(=O)O

Tests used:
Assay type in all cases: cell-based, human
[1] = test system: NLRP3 inflammasome; assay: IL-18 release from THP-1 cells stimulated with LPS and nigericin (ELISA); conditions: THP-1, LPS/nigericin; 12.5, 25, 50 and 100 μM; Fig. 8A
Experimental: Human monocytic THP-1 cells (1 × 10^7 cells) were plated in a 10-cm tissue culture dish and treated with PMA (200 nM) overnight to differentiate monocytic cells into macrophages. Cells were then washed and allowed to rest in fresh media for another day. For stimulation, differentiated THP-1 cells were trypsinized and seeded in 96-well plates (2 × 10^6/well). Peripheral blood mononuclear cells were isolated by Ficoll-Hypaque density gradient centrifugation from buffy coats obtained from anonymous donors provided by the National University Hospital Blood Bank, Singapore. Isolation of monocytes was performed using negative selection with the Monocyte Isolation Kit II (Miltenyi Biotech), following the manufacturer’s instructions. Monocytes were plated in tissue culture non-treated 96-well plates (2.5 × 10^5/well) in 250 µl RPMI 1640-Glutamax media supplemented with 3% human AB serum (Gemini Bio Products). […]
IL-1β levels were measured using antibodies from eBioscience (cat. #14-7018-81 and #13-7016-85), following the manufacturer’s instructions. IL-18 levels were measured using antibodies from MBL (D044-3 and D045-6) following the manufacturer’s instructions. The absorbance was measured at 450 nm with the reference wavelength at 570 nm, using an M200 Infinite plate reader (Tecan).

[2] = test system: NLRP3 inflammasome; assay: Western blot of processed IL-1β p17 and Casp-1 p20 in THP-1 supernatants and of pro-forms in lysates; conditions: THP-1, LPS/nigericin, Fig. 8D
Experimental: THP-1 cells and monocytes were incubated with NLRP3^PYD (12.5–25–50 μM), ASC^PYD #5 (12.5-25-50-100 μM) or ASC^PYD #6 (12.5-25-50-100 μM) for the indicated durations. Cells were then washed once with PBS and primed with E. coli LPS (0.1 μg/ml, Invivogen) for 4 h followed by stimulation with nigericin (10 μM) for an additional 1 h or ATP ([…]) for an additional 30 min. The cell culture supernatants were then collected and centrifuged at 500 × g to remove cells and cellular debris.
Cell-free supernatants were mixed 1:4 to cold acetone and incubated at −20 °C for at least 1 h. The mixtures were then centrifuged at 15,000 rpm for 15 min at 4 °C. Supernatants were discarded and pellets re-suspended in 1X Laemmli buffer. Total cell lysates were prepared using RIPA buffer containing 150 mM NaCl, 0.5% sodium deoxycholate, 0.1% SDS, 50 mM Tris-HCl pH 8.0 and 1% Triton-X-100. Protein concentrations were determined by BCA assay (Thermo Scientific, cat. 23227) following the manufacturer’s instructions. Lysates were reconstituted in Laemmli buffer (20–50 μg), boiled and separated by SDS–PAGE, and transferred onto PVDF membranes. […]

[3] = test system: ASC; assay: Imaging of ASC speck oligomerization in THP-1 cells; conditions: THP-1, LPS 0.1 μg/ml 4 h, nigericin 10 μM 1 h; 100 μM peptide; Fig. 8E
Experimental: Figure 8 ASC peptides effectively block IL-1β and IL-18 release and ASC oligomerization in human blood monocytes. (A) IL-1β and IL-18 were measured in cell-free supernatants from THP-1 cells incubated with FAM-ASC^PYD #5 or FAM-ASC^PYD #6 (12.5, 25,50 and 100 μM) for 24 h and primed with LPS (0.1 μg/ml, 4 h) followed by stimulation with nigericin (10 μM, 1 h), as assessed by ELISA. (B) Production of IL-1β and IL-18 from human blood monocytes stimulated or not with LPS (0.1 μg/ml, 4 h) alone or in a combination of ATP (5 mM, 30 min) in the presence of FAM-ASC^PYD #5 or FAM-ASC^PYD #6 (25, 50 and 100 μM) peptides. (C,D) Western blot analysis of processed IL-1β p17 (C) and Casp-1 p20 (D) in cell-free supernatants of THP-1 cells primed with LPS (0.1 μg/ml, 4 h), followed by stimulation with nigericin (10 μM, 1 h) in the presence of FAM-ASC^PYD #5 (25, 50 and 100 μM), FAM-ASC^PYD #6 (50 and 100 μM) peptides, or DMSO vehicle. Expression of pro-IL-1β p35 and pro-Casp-1 p50 was assessed in cell lysates. GAPDH was used as loading control. (E) Imaging of ASC speck oligomerization in THP-1 cells treated with LPS (0.1 μg/ml, 4 h) and nigericin (10 μM, 1 h) in the absence or presence of FAM-ASC^PYD #5 or FAM-ASC^PYD #6 (100 μM) peptides. The number of ASC specks were counted manually in at least 100 cells, and the proportion of cells containing a speck was shown. […]

SMILES	IL-18 production (in words) [1]	Caspase-1 activation (caspase-1 p20 in supernatants) [2]	ASC speck formation [3]
CC[C@H](C)[C@@H]1NC(=O)[C@H](CCCCN)NC(=O)[C@H](C)NC(=O)[C@H](CC(C)C)NC(=O)[C@H](CCCCN)NC(=O)[C@](C)(NC(=O)[C@H](C)NC(=O)[C@H](CCCNC(=N)N)NC(=O)[C@H](C)NC(=O)[C@@H](NC(C)=O)[C@@H](C)O)CCCCCCC=CCCC[C@@](C)(C(=O)N[C@@H](CCC(=O)O)C(=O)N[C@@H](CO)C(=O)N[C@H](C(N)=O)C(C)C)NC(=O)[C@H](CCCCN)NC1=O [ms_ASC^PYD #5] (Ac-TARA[R8]KLAKIK[S5]ESV-NH2; staple 5-12)	decreased IL-18 production by LPS/nigericin-stimulated THP-1 cells in a dose-dependent manner	reduced caspase-1 activation in a dose-dependent manner	significantly inhibited speck formation
CC[C@H](C)[C@@H]1NC(=O)[C@H](CCCCN)NC(=O)[C@H](C)NC(=O)[C@H](CCCCN)NC(=O)[C@H](CCCCN)NC(=O)[C@](C)(NC(=O)[C@H](C)NC(=O)[C@H](CCCNC(=N)N)NC(C)=O)CCCCCCC=CCCC[C@@](C)(C(=O)N[C@@H](CCC(=O)O)C(=O)N[C@@H](CO)C(=O)N[C@H](C(N)=O)C(C)C)NC(=O)[C@H](CCCCN)NC1=O [ms_ASC^PYD #6] (Ac-RA[R8]KKAKIK[S5]ESV-NH2; staple 3-10)	decreased IL-18 production by LPS/nigericin-stimulated THP-1 cells in a dose-dependent manner	reduced caspase-1 activation in a dose-dependent manner	significantly inhibited speck formation
